# How the values were obtained:
# Conditions in all cases: binder
# CASK = target: T1, CASK (Homo sapiens, UniProt O14936)
# T1 sequence (O14936 1-926): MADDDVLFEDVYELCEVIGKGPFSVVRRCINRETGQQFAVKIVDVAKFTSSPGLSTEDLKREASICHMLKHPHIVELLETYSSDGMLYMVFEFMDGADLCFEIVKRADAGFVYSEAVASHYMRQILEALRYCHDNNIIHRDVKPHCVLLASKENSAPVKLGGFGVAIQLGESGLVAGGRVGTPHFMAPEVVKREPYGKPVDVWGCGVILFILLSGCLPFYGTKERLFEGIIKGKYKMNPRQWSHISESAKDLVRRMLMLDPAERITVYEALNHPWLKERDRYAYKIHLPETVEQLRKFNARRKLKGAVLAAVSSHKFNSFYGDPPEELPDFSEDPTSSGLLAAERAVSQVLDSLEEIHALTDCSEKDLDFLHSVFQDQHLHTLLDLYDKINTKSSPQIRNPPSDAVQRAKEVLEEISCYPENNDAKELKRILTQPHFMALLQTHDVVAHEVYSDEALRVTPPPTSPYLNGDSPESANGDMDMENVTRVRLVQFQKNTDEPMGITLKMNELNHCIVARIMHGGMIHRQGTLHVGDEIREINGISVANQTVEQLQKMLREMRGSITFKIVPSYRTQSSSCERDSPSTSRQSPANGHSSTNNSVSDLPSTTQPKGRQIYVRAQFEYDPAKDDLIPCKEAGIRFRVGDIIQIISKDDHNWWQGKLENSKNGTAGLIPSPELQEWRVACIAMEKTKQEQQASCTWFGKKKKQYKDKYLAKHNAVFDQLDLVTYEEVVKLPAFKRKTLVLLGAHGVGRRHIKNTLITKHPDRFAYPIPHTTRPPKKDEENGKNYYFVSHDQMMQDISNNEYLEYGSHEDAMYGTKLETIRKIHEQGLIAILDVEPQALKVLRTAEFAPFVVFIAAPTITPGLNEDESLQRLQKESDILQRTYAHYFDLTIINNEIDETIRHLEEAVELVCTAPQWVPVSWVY
# VRK1 = target: T2, VRK1 (Homo sapiens, UniProt Q99986)
# T2 sequence (Q99986 1-396): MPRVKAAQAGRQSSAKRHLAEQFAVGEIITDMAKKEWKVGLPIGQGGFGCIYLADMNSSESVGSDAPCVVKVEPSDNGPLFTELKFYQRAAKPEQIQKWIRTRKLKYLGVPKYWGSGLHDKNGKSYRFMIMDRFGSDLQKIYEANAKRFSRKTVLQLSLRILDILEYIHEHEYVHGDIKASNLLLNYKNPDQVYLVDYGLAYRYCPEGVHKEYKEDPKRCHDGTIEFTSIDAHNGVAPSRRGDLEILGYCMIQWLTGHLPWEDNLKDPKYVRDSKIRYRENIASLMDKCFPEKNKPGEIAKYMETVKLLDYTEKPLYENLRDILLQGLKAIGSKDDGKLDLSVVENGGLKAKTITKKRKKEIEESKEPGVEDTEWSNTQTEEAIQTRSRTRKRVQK
# EphA4 = EphA4 (Homo sapiens, UniProt P54764)
# Sequence of EphA4 (P54764 whole entry): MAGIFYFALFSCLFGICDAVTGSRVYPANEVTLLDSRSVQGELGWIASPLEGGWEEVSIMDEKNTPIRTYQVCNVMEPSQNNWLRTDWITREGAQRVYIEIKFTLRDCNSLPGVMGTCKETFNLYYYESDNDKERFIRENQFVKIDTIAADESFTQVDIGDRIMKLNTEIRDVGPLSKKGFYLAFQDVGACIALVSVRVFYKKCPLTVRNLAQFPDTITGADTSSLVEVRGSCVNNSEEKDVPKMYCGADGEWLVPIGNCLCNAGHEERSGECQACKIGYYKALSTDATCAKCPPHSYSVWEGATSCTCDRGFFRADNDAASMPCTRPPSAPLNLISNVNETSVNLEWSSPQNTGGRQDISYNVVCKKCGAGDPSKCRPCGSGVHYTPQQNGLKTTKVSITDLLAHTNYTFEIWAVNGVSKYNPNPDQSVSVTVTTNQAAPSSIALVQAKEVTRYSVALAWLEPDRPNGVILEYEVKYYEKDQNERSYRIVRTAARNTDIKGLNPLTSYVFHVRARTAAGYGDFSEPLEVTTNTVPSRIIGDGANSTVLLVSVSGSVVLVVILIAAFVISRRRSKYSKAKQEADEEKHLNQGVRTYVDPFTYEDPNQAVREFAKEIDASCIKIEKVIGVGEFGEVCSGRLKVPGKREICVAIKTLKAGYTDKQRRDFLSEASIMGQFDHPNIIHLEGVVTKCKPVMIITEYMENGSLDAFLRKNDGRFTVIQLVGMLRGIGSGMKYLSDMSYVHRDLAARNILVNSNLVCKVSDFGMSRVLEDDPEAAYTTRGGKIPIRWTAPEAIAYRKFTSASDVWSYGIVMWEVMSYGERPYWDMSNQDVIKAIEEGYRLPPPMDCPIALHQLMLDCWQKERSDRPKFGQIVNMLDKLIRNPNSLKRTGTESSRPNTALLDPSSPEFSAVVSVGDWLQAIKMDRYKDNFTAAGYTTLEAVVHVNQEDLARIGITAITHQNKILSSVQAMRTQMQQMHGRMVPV
# CHK2 = CHK2 (Homo sapiens, UniProt O96017)
# Sequence of CHK2 (O96017 whole entry): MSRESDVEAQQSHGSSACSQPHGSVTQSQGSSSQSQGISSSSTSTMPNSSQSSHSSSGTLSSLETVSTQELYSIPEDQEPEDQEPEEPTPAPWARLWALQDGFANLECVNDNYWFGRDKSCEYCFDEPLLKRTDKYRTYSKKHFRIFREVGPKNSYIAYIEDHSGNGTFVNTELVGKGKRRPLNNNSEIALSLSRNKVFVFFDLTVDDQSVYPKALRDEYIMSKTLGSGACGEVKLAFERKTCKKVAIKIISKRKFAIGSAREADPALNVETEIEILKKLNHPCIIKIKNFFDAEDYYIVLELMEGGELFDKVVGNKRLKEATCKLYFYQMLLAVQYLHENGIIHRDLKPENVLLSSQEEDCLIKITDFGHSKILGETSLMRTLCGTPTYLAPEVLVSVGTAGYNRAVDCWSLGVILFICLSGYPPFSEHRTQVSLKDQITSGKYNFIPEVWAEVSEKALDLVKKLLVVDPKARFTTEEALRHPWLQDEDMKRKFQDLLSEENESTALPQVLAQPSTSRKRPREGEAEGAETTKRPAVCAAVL
# EphA7 = EphA7 (Homo sapiens, UniProt Q15375)
# MAPKAPK2 = MAPKAPK2 (Homo sapiens, UniProt P49137)
# Sequence of MAPKAPK2 (P49137 whole entry): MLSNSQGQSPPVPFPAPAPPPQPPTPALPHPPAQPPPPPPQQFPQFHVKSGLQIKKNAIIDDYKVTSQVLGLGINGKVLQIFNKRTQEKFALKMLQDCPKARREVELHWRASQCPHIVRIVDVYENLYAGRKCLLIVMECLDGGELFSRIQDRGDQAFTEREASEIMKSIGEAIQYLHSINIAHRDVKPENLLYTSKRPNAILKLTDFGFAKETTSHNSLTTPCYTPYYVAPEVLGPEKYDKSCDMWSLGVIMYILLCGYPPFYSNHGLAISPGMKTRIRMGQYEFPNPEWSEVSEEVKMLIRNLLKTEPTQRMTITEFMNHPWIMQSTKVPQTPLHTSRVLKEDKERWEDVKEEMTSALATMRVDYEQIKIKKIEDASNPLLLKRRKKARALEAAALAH
# Wnk1 = Wnk1 (Homo sapiens, UniProt Q9H4A3)
# Sequence of Wnk1 (Q9H4A3 whole entry): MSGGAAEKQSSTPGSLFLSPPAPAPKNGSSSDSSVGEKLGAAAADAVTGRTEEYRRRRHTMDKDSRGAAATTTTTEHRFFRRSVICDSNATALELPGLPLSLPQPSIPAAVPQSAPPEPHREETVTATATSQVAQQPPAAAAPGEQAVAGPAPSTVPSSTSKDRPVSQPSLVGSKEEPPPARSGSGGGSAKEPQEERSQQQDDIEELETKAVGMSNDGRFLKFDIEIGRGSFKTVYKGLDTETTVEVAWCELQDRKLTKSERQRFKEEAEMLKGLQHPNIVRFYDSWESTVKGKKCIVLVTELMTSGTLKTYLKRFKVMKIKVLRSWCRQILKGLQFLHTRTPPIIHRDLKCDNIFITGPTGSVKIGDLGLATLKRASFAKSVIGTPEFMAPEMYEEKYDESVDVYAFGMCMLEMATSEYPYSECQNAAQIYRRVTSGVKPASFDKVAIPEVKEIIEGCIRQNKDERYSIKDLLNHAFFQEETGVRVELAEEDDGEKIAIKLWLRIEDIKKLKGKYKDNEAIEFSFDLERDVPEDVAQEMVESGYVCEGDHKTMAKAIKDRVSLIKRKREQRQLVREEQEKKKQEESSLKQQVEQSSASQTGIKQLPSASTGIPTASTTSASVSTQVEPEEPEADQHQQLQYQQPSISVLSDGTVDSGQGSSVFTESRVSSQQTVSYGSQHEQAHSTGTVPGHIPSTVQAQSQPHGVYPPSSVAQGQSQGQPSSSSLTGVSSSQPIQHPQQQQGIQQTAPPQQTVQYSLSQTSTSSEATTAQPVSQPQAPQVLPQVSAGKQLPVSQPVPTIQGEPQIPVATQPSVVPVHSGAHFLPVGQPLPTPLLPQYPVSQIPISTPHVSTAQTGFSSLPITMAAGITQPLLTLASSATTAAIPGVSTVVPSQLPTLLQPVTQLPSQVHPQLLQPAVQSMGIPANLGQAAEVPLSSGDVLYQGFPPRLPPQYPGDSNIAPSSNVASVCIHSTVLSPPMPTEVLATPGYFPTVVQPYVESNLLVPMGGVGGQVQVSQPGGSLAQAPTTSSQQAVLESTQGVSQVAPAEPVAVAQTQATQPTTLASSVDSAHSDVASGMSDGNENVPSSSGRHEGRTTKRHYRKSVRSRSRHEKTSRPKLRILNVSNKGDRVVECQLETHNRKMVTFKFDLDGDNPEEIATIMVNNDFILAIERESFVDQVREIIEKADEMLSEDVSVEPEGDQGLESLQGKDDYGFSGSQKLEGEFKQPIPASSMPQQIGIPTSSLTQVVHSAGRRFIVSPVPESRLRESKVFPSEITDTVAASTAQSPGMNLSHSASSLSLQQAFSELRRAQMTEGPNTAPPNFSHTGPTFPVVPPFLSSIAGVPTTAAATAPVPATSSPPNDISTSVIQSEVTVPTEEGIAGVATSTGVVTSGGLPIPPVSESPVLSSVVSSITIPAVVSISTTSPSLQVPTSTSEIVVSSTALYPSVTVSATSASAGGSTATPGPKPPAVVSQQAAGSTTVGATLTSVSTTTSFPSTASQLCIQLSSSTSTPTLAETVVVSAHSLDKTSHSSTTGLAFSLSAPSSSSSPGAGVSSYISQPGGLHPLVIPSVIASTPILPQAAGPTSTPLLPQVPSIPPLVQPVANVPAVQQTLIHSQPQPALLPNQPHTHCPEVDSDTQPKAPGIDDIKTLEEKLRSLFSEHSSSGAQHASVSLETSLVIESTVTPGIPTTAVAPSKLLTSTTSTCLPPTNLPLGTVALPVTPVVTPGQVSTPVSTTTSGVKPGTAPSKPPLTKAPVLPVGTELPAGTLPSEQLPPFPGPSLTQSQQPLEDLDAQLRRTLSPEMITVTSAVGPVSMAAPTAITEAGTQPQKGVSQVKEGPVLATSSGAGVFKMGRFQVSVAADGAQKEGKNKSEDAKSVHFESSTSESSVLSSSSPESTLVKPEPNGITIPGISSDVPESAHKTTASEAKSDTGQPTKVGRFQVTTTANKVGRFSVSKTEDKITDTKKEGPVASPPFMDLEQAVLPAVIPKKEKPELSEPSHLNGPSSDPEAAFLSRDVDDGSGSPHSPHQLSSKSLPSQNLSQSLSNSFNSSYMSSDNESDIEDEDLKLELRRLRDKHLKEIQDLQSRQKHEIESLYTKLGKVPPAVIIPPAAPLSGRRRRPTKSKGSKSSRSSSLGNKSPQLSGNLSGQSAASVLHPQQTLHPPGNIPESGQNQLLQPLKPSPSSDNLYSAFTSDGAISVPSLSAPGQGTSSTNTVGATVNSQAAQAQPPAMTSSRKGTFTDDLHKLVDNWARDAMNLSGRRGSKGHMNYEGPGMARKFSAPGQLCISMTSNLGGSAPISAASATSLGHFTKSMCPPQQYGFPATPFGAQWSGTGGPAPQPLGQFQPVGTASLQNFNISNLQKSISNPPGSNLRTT
# JNK2 = JNK2 (Homo sapiens, UniProt P45984)
# Sequence of JNK2 (P45984 whole entry): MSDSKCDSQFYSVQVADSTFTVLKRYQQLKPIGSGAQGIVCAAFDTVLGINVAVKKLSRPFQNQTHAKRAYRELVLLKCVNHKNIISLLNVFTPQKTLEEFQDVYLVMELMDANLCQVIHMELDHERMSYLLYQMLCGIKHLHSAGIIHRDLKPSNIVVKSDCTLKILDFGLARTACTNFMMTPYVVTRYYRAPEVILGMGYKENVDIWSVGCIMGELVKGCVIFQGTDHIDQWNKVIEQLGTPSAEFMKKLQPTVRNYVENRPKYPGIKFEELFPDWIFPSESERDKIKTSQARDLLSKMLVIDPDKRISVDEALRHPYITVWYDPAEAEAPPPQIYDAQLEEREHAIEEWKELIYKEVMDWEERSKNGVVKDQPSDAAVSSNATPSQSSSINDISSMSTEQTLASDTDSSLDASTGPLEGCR
# DAPK3 = DAPK3 (Homo sapiens, UniProt O43293)
# NEK2 = target: T3, NEK2 (Homo sapiens, UniProt P51955)
# T3 sequence (P51955 1-445): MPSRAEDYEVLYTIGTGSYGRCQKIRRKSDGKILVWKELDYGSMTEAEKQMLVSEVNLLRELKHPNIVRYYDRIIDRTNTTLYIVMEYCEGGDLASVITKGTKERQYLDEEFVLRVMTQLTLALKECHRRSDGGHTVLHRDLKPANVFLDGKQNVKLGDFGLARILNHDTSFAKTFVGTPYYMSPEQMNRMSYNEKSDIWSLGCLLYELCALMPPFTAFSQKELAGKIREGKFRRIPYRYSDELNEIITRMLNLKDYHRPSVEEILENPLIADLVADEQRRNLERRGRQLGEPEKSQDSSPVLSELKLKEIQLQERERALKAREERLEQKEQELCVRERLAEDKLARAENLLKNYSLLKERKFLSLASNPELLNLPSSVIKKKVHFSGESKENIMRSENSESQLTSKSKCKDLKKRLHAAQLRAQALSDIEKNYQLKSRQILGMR
smiles,measurement,setting,value
"Cc1cccc(-c2ccc(-c3cc4cnc(Nc5ccc(F)c(CO)c5)nc4n(CCCCN)c3=O)c(Cl)c2)n1 [compound 33, 8-(4-Aminobutyl)-6-(2-chloro-4-(6-methylpyridin-2-yl)phenyl)-2-((4-fluoro-3-(hydroxymethyl)phenyl)amino)pyrido[2,3-d]pyrimidin-7(8H)-one]",dTm 33,CASK,0.2 °C
same,dTm 33,VRK1,0.4 °C
same,dTm 33,EphA4,3.5 °C
same,dTm 33,CHK2,10.4 °C
same,dTm 33,EphA7,5.3 °C
same,dTm 33,MAPKAPK2,-0.5 °C
same,dTm 33,Wnk1,3.3 °C
same,dTm 33,JNK2,3.0 °C
same,dTm 33,DAPK3,1.9 °C
same,dTm 33,NEK2,10.6 °C
"COc1ccc(O)c(Nc2ncc3cc(-c4ccc(-c5cccc(C)n5)cc4Cl)c(=O)n(CCCCN)c3n2)c1 [compound 34, 8-(4-Aminobutyl)-6-(2-chloro-4-(6-methylpyridin-2-yl)phenyl)-2-((2-hydroxy-5-methoxy-phenyl)amino)pyrido[2,3-d]pyrimidin-7(8H)-one]",dTm 34,CASK,-0.2 °C
same,dTm 34,VRK1,0.0 °C
same,dTm 34,EphA4,2.5 °C
same,dTm 34,CHK2,6.4 °C
same,dTm 34,EphA7,3.4 °C
same,dTm 34,MAPKAPK2,-0.1 °C
same,dTm 34,Wnk1,0.8 °C
same,dTm 34,JNK2,0.3 °C
same,dTm 34,DAPK3,1.5 °C
same,dTm 34,NEK2,8.4 °C
"COc1cc(N2CCOCC2)ccc1Nc1ncc2cc(-c3ccc(-c4cccc(C)n4)cc3Cl)c(=O)n(CCCCN)c2n1 [compound 35, 8-(4-Aminobutyl)-6-(2-chloro-4-(6-methylpyridin-2-yl)phenyl)-2-((2-methoxy-4-morpholino-phenyl)amino)pyrido[2,3-d]pyrimidin-7(8H)-one]",dTm 35,CASK,0.0 °C
same,dTm 35,VRK1,-0.2 °C
same,dTm 35,EphA4,2.7 °C
same,dTm 35,CHK2,13.0 °C
same,dTm 35,EphA7,5.8 °C
same,dTm 35,MAPKAPK2,-0.6 °C
same,dTm 35,Wnk1,2.7 °C
same,dTm 35,JNK2,0.1 °C
same,dTm 35,DAPK3,3.2 °C
same,dTm 35,NEK2,10.6 °C
"COc1cc(N2CCN(C)CC2)ccc1Nc1ncc2cc(-c3ccc(-c4cccc(C)n4)cc3Cl)c(=O)n(CCCCN)c2n1 [compound 36, 8-(4-Aminobutyl)-6-(2-chloro-4-(6-methylpyridin-2-yl)phenyl)-2-((2-methoxy-4-(4-methylpiperazin-1-yl)phenyl)amino)pyrido[2,3-d]pyrimidin-7(8H)-one]",dTm 36,CASK,-0.4 °C
same,dTm 36,VRK1,0.1 °C
same,dTm 36,EphA4,2.4 °C
same,dTm 36,CHK2,12.6 °C
same,dTm 36,EphA7,5.0 °C
same,dTm 36,MAPKAPK2,-0.1 °C
same,dTm 36,Wnk1,1.5 °C
same,dTm 36,JNK2,-0.3 °C
same,dTm 36,DAPK3,1.6 °C
same,dTm 36,NEK2,9.2 °C

# Reference: article doi:10.1101/2023.11.24.568596v1 (biorxiv, 2023)
